This is an account of results in a melting point compilation (Tetko et al.; mined from patent text by program, amines drawn as free bases though some values may be those of a salt).

On to `CC(C)n1c(S(=O)(=O)c2ccc(OCc3ccccc3)cc2)nc2ccccc21`, for which the melting point is 94 to 96 °C.
Under `O=C(O)CCCN1CCN2c3ccccc3Cc3ccccc3C2C1` (centres undefined) stands 104 to 105 °C; under `O=c1[nH]ncc2[nH]c(-c3ccc(OC(F)F)c(OC4CC4)c3)c(Cc3ccccc3F)c12`, 202 to 204 °C.
As to `Nc1scc2c(-c3n[nH]c(=O)o3)nn(-c3ccccc3)c(=O)c12`, the melting point is > 250 °C.
With `CC12CC(O)C3=C4CCC(=O)C=C4CCC3C1C(O)CC2=O` (centres undefined), the melting point is 146 °C.
The molecule `CCCCn1cnc2c(Oc3ccccc3)nc(Nc3ccc(OC)cc3OC)nc21` gave a melting point of 97 to 99 °C.
`Nc1ncccc1-c1nc2cc(-c3cccnc3)cnc2n1-c1ccc(CNS(=O)(=O)c2ccccc2)cc1` returned a melting point of 217 to 219 °C.
Under `O=C(c1cc(=O)c2cc(O)ccc2[nH]1)N1CCC(Oc2ccccc2)CC1` stands 270 °C.
As for `CCOc1cc(-c2nnc3c4ccccc4c(OCc4cn(C)cn4)nn23)no1`, the melting point was in the range of 189 to 190 °C.
Under `COC(=O)CCc1ncc(O)c(C(=O)OC)c1C(=O)OC` stands 66 to 67 °C; under `Cn1nc(-c2cc(S(=O)(=O)Cl)c(Cl)cc2F)c(Cl)c1C(F)(F)F`, 116 to 117 °C; under `COc1ccc(-c2ccoc2)c2c1c(CCN(C)C)cn2C`, 80 to 81 °C.
In turn, `CCOc1ccccc1C=[N+]([O-])C1CCCCC1` yielded a melting point of 124 °C.
`CN(C)C(=O)c1nn(-c2ccncc2)c(=O)c2c1c1ccc(Cl)cc1n2C` displayed a melting point of 276 to 278 °C.
Under `Cc1cc(-c2cccc(NC(=O)N[C@@H]3c4cc(C#N)ccc4OC(C)(C)[C@H]3O)c2)n(C)n1` stands 142 to 152 °C; under `Cc1c(OCc2ccccc2)c(=O)ccn1CCCCCC(=O)O`, 145 to 147 °C; under `CCOC(=O)c1cc(=O)c2cc(OC)cc(Br)c2o1`, 159 to 161 °C.
On to `CCOC(=O)Cc1cn(Cc2ccccc2)nc1O`, for which the melting point is 156 to 157 °C.
`CCc1c(C(=O)NN2CCCCC2)nc(-c2ccccc2Cl)n1-c1ccc(Cl)cn1` had a melting point of 217 to 219 °C.
`COC(=O)Oc1ccc(-c2ccc(=O)n(Cc3ccc(Cl)cc3F)c2)cc1` showed a melting point of 124 °C.
As to `O=C(NCCNCC(O)COc1ccccc1)c1cc(O)ccc1O` (centres undefined), the melting point lay within 178 to 180 °C.
Regarding `O=C(NCCCC(NC(=O)c1ccccc1)C(O)C(F)(F)F)c1ccccc1` (centres undefined), the melting point was 103 °C.
Take `O=C1CCCCC1c1ncc[nH]1` (centres undefined): the melting point was 104 to 105 °C.
Regarding `Cc1ccc(-c2nnc(N3CCC(=O)CC3)nc2-c2ccc(C)cc2)cc1`, the melting point is 197 to 199 °C.
With `CCOC(=O)c1c[nH]c2cnc3cc(F)c(F)cc3c2c1=O` the figure was 300 °C; with `CNC(=S)NCc1cc(-c2ccccc2)no1`, 118 °C; with `O=C(Nc1ccc(N(CCCl)CCCl)cc1)Nc1cc(CO)cc(Nc2c3ccccc3nc3ccccc23)c1`, 173 to 175 °C.
In turn, `O=C1N(C23CC4CC(CC(C4)C2)C3)CCC1(Cc1ccncc1)Cc1ccncc1` showed a melting point of 164 to 165 °C.
On to `Cc1oc(-c2ccccc2)nc1COc1ccc(CCC(C(=O)O)c2c[nH]nc2-c2ccccc2)cc1` (centres undefined), for which the melting point was in the range of 104 to 105 °C.
Regarding `Cc1nn(C)c(=O)n1-c1ccccc1COc1ccn(-c2ccc(Cl)cc2)n1`, the melting point was in the range of 107 to 108 °C.
Turning to `O=C(O)COc1cccc(-n2nc(-c3ccc(F)cc3)c3cccnc32)c1`, the melting point fell in the range of 225 to 226 °C.
Regarding `COc1cccc(-n2c(CC(c3ccccc3)c3c[nH]c4ccccc34)nc3ccccc3c2=O)c1` (centres undefined), the melting point was 160 to 164 °C.
Under `Nc1ncc(-c2ccccc2COC2CCCCC2)s1` stands 102 °C.
As for `c1ccc2c(c1)-c1cccc3c(NCCCCNc4nccc5ccccc45)nnc-2c13`, the melting point is 95 to 105 °C.
With `Cc1nc(-c2ccc(F)cc2Cl)nn1-c1ccccc1C(F)(F)F`, the melting point turned out to be 116 °C.
For the molecule `N#CC(=NNCc1c(Cl)cc(C(F)(F)F)cc1Cl)c1ccc(C#N)cc1`, the melting point fell in the range of 92 to 93 °C.
In turn, `O=C(c1ccc2ccccc2n1)N1CCN=C1Nc1c(Cl)cccc1Cl` registered a melting point of 194 to 196 °C.
Consider `CCOC(=O)Cc1cnc2c(NC(=O)c3c(Cl)cccc3Cl)cccc2c1`, for which the melting point was 151 °C.
`Cc1nnc(-c2ccc3occ(C#N)c3c2)o1` returned a melting point of 188 to 189 °C.
With `CCOC(=O)c1ncc2[nH]c3ccc(C4CCCCC4)cc3c2c1COC` the figure was 254 to 266 °C; with `O=C(O)c1ccc(OCCNC(=O)C2Cc3ccccc3N2S(=O)(=O)c2ccc(-c3ccc(F)cc3OC(F)F)cc2)cc1` (centres undefined), 70 °C.
In turn, `COC(=O)CCCC#CCN1C(=O)c2ccccc2C1=O` had a melting point of 62 to 63 °C.
In turn, `N#Cc1ccc(OCCCCCCOc2cccc(-c3cc4cc(C#N)ccc4o3)c2)cc1` showed a melting point of 134 to 136 °C.
Molecule `Nc1ccc(F)c(NC(=O)C(F)(F)F)c1` showed a melting point of 116 to 118 °C.
As to `COc1ccc(C(=O)c2coc3ccccc23)cc1`, the melting point was in the range of 89 to 90 °C.
With `COc1ccccc1C(=O)C=Cc1ccncc1`, the melting point came to 70 °C.
The molecule `CCOC(=O)C(NC(=O)CCl)N(C(=O)CCl)c1cscn1` (centres undefined) had a melting point of 102 to 104 °C.
Turning to `O=C(O)C(F)(F)c1cccc(OCc2ccccc2Cl)c1OCc1ccccc1Cl`, the melting point lay in the range of 55 to 57 °C.
The molecule `COC(=O)/C=C/c1ccc(N2CCCC2=O)nc1` registered a melting point of 151 to 160 °C.
With `O=C(Cc1ccccc1)c1ccc(OC=C(F)F)cc1`, the melting point was in the range of 81 to 85 °C.
In the case of `CNC(=O)c1cc2cc(S(N)(=O)=O)sc2s1`, the melting point was in the range of 272 to 273 °C.
With `CC(NC(N)=S)c1ccc(NS(C)(=O)=O)cc1` (centres undefined) the figure was 77 °C; with `OCCN1CCN(C2=Nc3ccccc3Sc3ccccc32)CC1`, 57 to 60 °C.
With `O=C(CCC(F)(F)F)Oc1cc(=O)n(-c2ccccc2)c2ncccc12`, the melting point lay within 193 to 195 °C.
Molecule `COc1cc2c(cc1-c1nocc1-c1ccccc1C#N)C(C)(C)CCC2(C)C` registered a melting point of 202 to 203 °C.
For `CCCCCCCCCCCCc1ccccc1CC(O)(SCCC(=O)O)C(N)=O` (centres undefined), the melting point was 97.5 to 102 °C.
Molecule `Cc1cccc(NC(=O)NCC(=O)N(CC(=O)OCC(F)(F)F)c2ccccc2)c1` gave a melting point of 172 °C.
Regarding `O=C(O)C(=O)c1cnsc1`, the melting point lay in the range of 145 to 148 °C.
On to `O=C(Nc1ccccc1)N1CCN2C(=O)OC(c3ccccc3)(c3ccccc3)C2C1` (centres undefined), for which the melting point was 117 to 118 °C.
In turn, `CONC(C(C)=O)c1cc(-n2c(=O)cc(C(F)(F)F)n(C)c2=O)ccc1Cl` (centres undefined) registered a melting point of 160 to 161 °C.
In the case of `CN(C)C(=O)c1c(S(N)(=O)=O)ccn1C`, the melting point was 185 to 190 °C.
Molecule `CCOc1ccc2nc(Cl)c(C=O)cc2c1` came in with a melting point of 163 to 164 °C.
The molecule `O=c1[nH]ncc2[nH]c(-c3ccc(OC(F)F)c(OC4CC4)c3)cc12` had a melting point of 287 to 292 °C.
In turn, `Cc1cc(C)c(-n2c(C)cc(C)c(C#N)c2=O)cc1N` yielded a melting point of 218 to 219 °C.
With `COCC1OC(=Nc2nccs2)c2c1nc1cc(Cl)ccc1c2O` (centres undefined) the figure was > 270 °C; with `Nc1ncccc1CNC1CCN(Cc2ccccc2)CC1`, 114 °C; with `O=[N+]([O-])C=Cc1cccc2[nH]ccc12`, 152 to 154 °C.
`COc1cc(N)c(Cl)cc1C(=O)NCC1CCN(CCCCCN2C(=O)c3ccccc3C2=O)CC1` registered a melting point of 58 to 61 °C.
`CC=CC(=O)Nc1n[nH]c2ccc(C)cc12` registered a melting point of 218 °C.
In turn, `O=c1[nH]c2ccccc2n1C1CCN(CCCOc2ccc(F)cc2Cl)CC1` yielded a melting point of 149 to 150 °C.
In turn, `N#CC1=C(COCc2ccccc2)Nc2n[nH]cc2C1c1ccccc1Cl` (centres undefined) showed a melting point of 165 to 166 °C.
Molecule `Cc1cc(-c2ccc(C(F)(F)F)nc2)cc(-c2cccc(-c3ccc(S(N)(=O)=O)s3)c2)n1` came in with a melting point of 231 to 233 °C.
With `c1ccc2c(c1)Sc1ccccc1N2C1CN2CCC1CC2` (centres undefined) the figure was 160 to 162 °C; with `COc1ccccc1NC(=O)Nc1nc(Nc2ccccc2-c2ccccc2)nc(N(CCC(=O)O)CCc2c[nH]c3ccccc23)n1`, 115 to 120 °C.
Molecule `COc1cccnc1Oc1cccc(C#N)c1` showed a melting point of 88 to 89 °C.
`CC(C)NC(=O)NC(=O)c1ccnc([N+](=O)[O-])c1` returned a melting point of 132 to 133 °C.
With `COc1cc2c(cc1OC)C(C(C#N)SCCO)=NCC2` (centres undefined) the figure was 138 to 140 °C; with `CCOc1ncc(SC)cc1C(=O)O`, 78 to 92 °C.
`COc1ccc(-n2c(CC(=O)O)c(C(=O)O)c3cc(Oc4cc(C(F)(F)F)cc(C(F)(F)F)c4)ccc32)cc1` showed a melting point of 232 °C.
Consider `CC(=O)Nc1cccc(-c2ccnc3c(C#N)cnn23)c1`, for which the melting point was in the range of 252 to 254 °C.
Take `CC1CCc2ccc(C#N)c3c(=O)c(C(=O)O)cn1c23` (centres undefined): the melting point is > 300 °C.
`CC(C)(C)c1cc(N(C(=O)C=CC(=O)O)c2ccccc2)cc(C(C)(C)C)c1O` returned a melting point of 154 to 157 °C.
`CCOC(=O)COc1ccc(S(=O)CCNS(=O)(=O)c2ccccc2)cc1` (centres undefined) came in with a melting point of 116 to 118 °C.
For the molecule `C1=C(c2ccc3c(c2)OCO3)CCC2(C1)OCCO2`, the melting point was in the range of 75 to 76 °C.
The molecule `Oc1cccc2sncc12` showed a melting point of 133 to 134 °C.
With `O=C(Nc1ccc(Cl)c(C(F)(F)F)c1)Oc1ccc2c(c1)CCCN2` the figure was 150 °C; with `c1ccc(-c2ccnc3ccnn23)cc1`, 72 to 73 °C.
With `O=C(OCCN1C(=O)C=C(c2ccccc2)C1=O)c1cc([N+](=O)[O-])cc([N+](=O)[O-])c1` the figure was 179 to 181 °C.
The molecule `COC(=O)/C=C(\C)C(C)Sc1nc(N)cc(Cl)n1` (centres undefined) came in with a melting point of 124 to 126 °C.

By melting point is commonly meant the temperature of the solid-liquid transition.
